# Measured values published in patent US20200055817A1 (AbbVie Deutschland GmbH & Co. KG, priority 2016, published 2020).
# What was measured:
# Assay type in all cases: cell-based
# [1] = target: T1, human EDG8 (S1PR5) receptor (Homo sapiens, UniProt Q9H228); assay: Aequorin assay, agonist potency, CHO-A21-EDG8#12 cells; conditions: agonist mode, aequorin luminescence; read-out: S1P5 EC50 range #
# T1 construct: carries the transgenes human EDG8 (S1PR5) receptor (Acession number NP_110387.1); expressed in transfected cells; host or cells: CHO-A21-EDG8#12 (CHO clone co-expressing mitochondrial aequorin and chimaeric Gaqi5)
# Summary of the method: (§1)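 CHO cells coexpressing receptor, mitochondrial aequorin and Gαqi5 (S1P3 pool: GNA16) were loaded overnight at RT with 5 μM coelenterazine h in 0.1% fatty-acid-free BSA buffer. Cells were injected onto compound, luminescence recorded 90 s and integrated, normalised to digitonin or 20 μM ATP; sigmoidal fit.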
# [2] = target: T2, human EDG1 (S1PR1) receptor (Homo sapiens, UniProt P21453); assay: Aequorin assay, agonist potency, CHO-A21-Edg1#17 cells; conditions: agonist mode, aequorin luminescence; read-out: S1P1 EC50
# T2 construct: expressed in transfected cells; host or cells: CHO-A21-Edg1#17 (CHO clone co-expressing mitochondrial aequorin and chimaeric Gaqi5)
# Summary of the method: as §1
# [3] = target: T3, human EDG3 (S1PR3) receptor (Homo sapiens, UniProt Q99500); assay: Aequorin assay, agonist potency, CHO-A2-S1P3 Mix cells; conditions: agonist mode, aequorin luminescence
# T3 construct: expressed in transfected cells; host or cells: CHO-A2-S1P3 Mix (CHO cell pool co-expressing mitochondrial aequorin and GNA16)
# Procedure: Agonistic activity was measured as described below.
# Cell clone CHO-A21-Edg1#17 carries the transgenes human EDG1 (S1PR1) receptor (Accession number NP_001391.2), mitochondrially targeted Aequorin (active part corresponds to accession number 1SL8_A) and chimaeric Gaqi5=Gaq modified with the 5 C-terminal amino-acids replaced with those of the Gai protein (DCGLF). CHO-A2-S1P3 Mix is a cell pool ectopically expressing human EDG3 (S1PR3) receptor (Accession number NP_005217.2) mitochondrially targeted Aequorin (active part has a sequence similar to accession number AY601106.1) and GNA16 (Accession number NP_002059.3). Cell clone CHO-A21-EDG8#12 carries the transgenes human EDG8 (S1PR5) receptor (Acession number NP_110387.1), mitochondrially expressed Aequorin (active part corresponds to accession number 1SL8_A) and chimaeric Gaqi5 (Gaq modified to present the 5 last amino-acids of the Gai protein “DCGLF”; see above). Cells are grown to mid-log phase in culture medium (HAM's F12, 10% FBS, 100 IU/mL penicillin, 100 μg/mL streptomycin, 250 μg/mL Zeocin, 400 μg/mL G418). 18 hours prior to frozen cells preparation, the medium is changed to remove the antibiotics.
# 18 hours prior to the test, vials of frozen cells are quickly thawed in a 37° C. water bath, cells are recovered by centrifugation and resuspended in assay buffer (DMEM/HAM's F12 with HEPES, without phenol red+0.1% fatty acid-free BSA). Cells are gently agitated in suspension overnight at RT in presence of 5 μM of Coelenterazine h (Molecular Probes). On the day of the test, cells are diluted to their final working concentrations in assay buffer and agitated in suspension for 1 h at RT. Cells are then placed in the luminescence reader (Hamamatsu Functional Drug Screening System 6000, FDSS6000). During cells incubation, compounds are prepared in 100% DMSO, and subsequently diluted in assay buffer. Compounds are then dispensed in the assay plate (black, clear-bottom, 384-well plate). After binding of agonists to the human S1P receptor the intracellular calcium concentration increases and binding of calcium to the Aequorin/Coelenterazine complex leads to an oxidation reaction of coelenterazine, which results in the production of Aequorin, coelenteramide, CO2 and light (Dmax 469 nm). The luminescent response is dependent on the agonist concentration. For agonist testing, 30 μL of cell suspension are injected on 30 μL of test compound or reference agonist in the assay plate. The resulting emission of light is recorded for 90 seconds using the FDSS6000. Dose response curves with the reference compounds are performed before testing the compounds. S1P is the reference agonist and JTE-013 the reference antagonist for S1P2.
# Luminescence data are integrated over the reading interval for agonist and antagonist modes. To standardize the emission of recorded light (determination of the “100% signal”) across plates and across different experiments, some of the wells contain 100 μM digitonin or a saturating concentration of ATP (20 μM). Plates also contain the reference agonist at a concentration equivalent to the EC80 obtained during the test validation and the EC100. Dose-response data from test compounds were analyzed with XLfit (IDBS) software using nonlinear regression applied to a sigmoidal dose-response model and the following equation: […]
# S1P4 = target: T4, S1P4 (Homo sapiens, UniProt O95977); assay: Aequorin assay, agonist potency, S1P4; conditions: agonist mode, aequorin luminescence
# T4 sequence (O95977 1-384): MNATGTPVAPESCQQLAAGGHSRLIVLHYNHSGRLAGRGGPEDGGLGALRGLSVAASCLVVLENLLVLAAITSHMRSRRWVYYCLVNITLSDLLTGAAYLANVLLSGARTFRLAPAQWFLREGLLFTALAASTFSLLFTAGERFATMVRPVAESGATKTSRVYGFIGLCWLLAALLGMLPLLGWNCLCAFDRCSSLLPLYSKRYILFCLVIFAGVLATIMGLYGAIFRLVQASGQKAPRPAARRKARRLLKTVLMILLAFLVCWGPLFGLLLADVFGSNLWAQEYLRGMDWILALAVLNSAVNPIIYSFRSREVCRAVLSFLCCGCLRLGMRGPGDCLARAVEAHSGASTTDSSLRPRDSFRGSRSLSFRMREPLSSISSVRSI
# Summary of the method: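 Aequorin luminescence read over 90 s after adding coelenterazine h–loaded cells (5 μM, overnight, RT) to test compound in phenol red-free DMEM/F12 buffer containing 0.1% fatty acid-free BSA. Responses integrated, scaled to the 100% signal from 100 μM digitonin or 20 μM ATP, and fitted to a sigmoidal dose-response model.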
# T3 sequence (Q99500 whole entry): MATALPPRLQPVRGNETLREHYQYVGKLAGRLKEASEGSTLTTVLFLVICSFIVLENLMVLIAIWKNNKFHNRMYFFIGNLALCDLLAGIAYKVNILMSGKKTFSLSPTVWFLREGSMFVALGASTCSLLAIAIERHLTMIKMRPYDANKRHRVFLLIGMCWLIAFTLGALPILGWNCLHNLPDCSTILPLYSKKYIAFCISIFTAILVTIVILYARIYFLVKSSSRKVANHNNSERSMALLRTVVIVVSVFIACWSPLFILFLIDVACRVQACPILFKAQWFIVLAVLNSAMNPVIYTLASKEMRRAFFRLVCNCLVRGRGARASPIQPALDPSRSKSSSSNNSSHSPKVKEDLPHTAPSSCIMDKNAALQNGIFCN
# T2 sequence (P21453 whole entry): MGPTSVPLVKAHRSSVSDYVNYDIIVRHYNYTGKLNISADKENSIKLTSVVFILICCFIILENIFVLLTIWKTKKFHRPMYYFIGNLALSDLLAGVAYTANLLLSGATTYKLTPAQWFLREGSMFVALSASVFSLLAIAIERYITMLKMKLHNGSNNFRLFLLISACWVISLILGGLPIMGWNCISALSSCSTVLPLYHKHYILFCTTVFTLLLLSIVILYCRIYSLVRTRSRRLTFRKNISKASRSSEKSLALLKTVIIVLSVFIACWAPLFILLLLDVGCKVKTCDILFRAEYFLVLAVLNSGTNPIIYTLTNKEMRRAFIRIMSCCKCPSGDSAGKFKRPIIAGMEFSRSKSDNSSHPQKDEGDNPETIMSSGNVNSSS
# T1 sequence (Q9H228 whole entry): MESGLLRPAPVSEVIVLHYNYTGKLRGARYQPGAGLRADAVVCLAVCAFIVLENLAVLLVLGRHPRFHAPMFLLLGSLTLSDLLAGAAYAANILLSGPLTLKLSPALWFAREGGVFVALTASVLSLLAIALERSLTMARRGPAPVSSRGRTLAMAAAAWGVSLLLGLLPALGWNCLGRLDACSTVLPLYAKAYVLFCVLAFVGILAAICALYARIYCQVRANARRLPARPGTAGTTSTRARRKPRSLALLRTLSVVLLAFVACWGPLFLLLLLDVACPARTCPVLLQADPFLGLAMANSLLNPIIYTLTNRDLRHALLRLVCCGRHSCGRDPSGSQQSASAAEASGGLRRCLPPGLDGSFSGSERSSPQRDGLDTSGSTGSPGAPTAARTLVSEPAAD
SMILES,EC50 [1] [nM],EC50 [2] [nM],EC50 [3] [nM],EC50 (S1P4) [nM]
"CCc1cccc(Cl)c1COc1ccc2c(c1)CC1(C2)CN(CC(=O)O)C1 [Example 24, 2,2,2-trifluoroacetic acid compound with 2-(5′-((2-chloro-6-ethylbenzyl)oxy)-1′,3′-dihydrospiro[azetidine-3,2′-inden]-1-yl)acetic acid (1:1)]",≤ 10,> 1000,> 1000,< 1000
"Cc1cccc(C)c1COc1ccc2c(c1)CC1(C2)CN(CC2(C(=O)O)CC2)C1 [Example 39, 1-((5′-((2,6-dimethylbenzyl)oxy)-1′,3′-dihydrospiro[azetidine-3,2′-inden]-1-yl)methyl)cyclopropanecarboxylic acid compound with 2,2,2-trifluoroacetic acid (1:1)]",≤ 10,> 1000,> 1000,< 1000
"O=C(O)C1(CN2CC3(Cc4ccc(OCc5c(Cl)cccc5C5CC5)cc4C3)C2)CC1 [Example 44, 1-((5′-((2-chloro-6-cyclopropylbenzyl)oxy)-1′,3′-dihydrospiro[azetidine-3,2′-inden]-1-yl)methyl)cyclopropanecarboxylic acid compound with acetic acid (1:1)]",≤ 10,> 1000,> 1000,< 1000
"O=C(O)C1(CN2CC3(Cc4ccc(OCc5cccc(Cl)c5)cc4C3)C2)CC1 [Example 45, 1-((5′-((3-chlorobenzyl)oxy)-1′,3′-dihydrospiro[azetidine-3,2′-inden]-1-yl)methyl)cyclopropanecarboxylic acid]",10 to 100,> 1000,> 1000,< 1000
"O=C(O)C1(CN2CC3(Cc4ccc(OCc5c(Cl)cccc5Cl)cc4C3)C2)CC1 [Example 46, 1-((5′-((2,6-dichlorobenzyl)oxy)-1′,3′-dihydrospiro[azetidine-3,2′-inden]-1-yl)methyl)cyclopropanecarboxylic acid]",≤ 10,> 1000,> 1000,< 1000
"O=C(O)C1(CN2CC3(Cc4ccc(-c5ccc(OCc6cccc(F)c6)cc5)cc4C3)C2)CC1 [Example 50, 1-((5′-(4-((3-fluorobenzyl)oxy)phenyl)-1′,3′-dihydrospiro[azetidine-3,2′-inden]-1-yl)methyl)cyclopropanecarboxylic acid]",≤ 10,> 1000,> 1000,< 1000
"O=C(O)C1(CN2CC3(Cc4ccc(OCCc5c(Cl)cccc5Cl)cc4C3)C2)CC1 [Example 59, 1-((5′-(2,6-dichlorophenethoxy)-1′,3′-dihydrospiro[azetidine-3,2′-inden]-1-yl)methyl)cyclopropanecarboxylic acid]",≤ 10,> 1000,> 1000,< 1000
"O=C(O)CN1CC2(Cc3ccc(OCCc4c(Cl)cccc4Cl)cc3C2)C1 [Example 63, 2-(5′-(2,6-dichlorophenethoxy)-1′,3′-dihydrospiro[azetidine-3,2′-inden]-1-yl)acetic acid]",≤ 10,> 1000,> 1000,< 1000
"O=C(O)CN1CC2(Cc3ccc(OCc4c(Cl)cccc4Cl)cc3C2)C1 [Example 109, 2-(5′-((2,6-dichlorobenzyl)oxy)-1′,3′-dihydrospiro[azetidine-3,2′-inden]-1-yl)acetic acid]",≤ 10,> 1000,> 1000,< 1000
"O=C(O)CN1CC2(Cc3ccc(OCc4c(F)cccc4C4CC4)cc3C2)C1 [Example 110, 2-(5′-((2-cyclopropyl-6-fluorobenzyl)oxy)-1′,3′-dihydrospiro[azetidine-3,2′-inden]-1-yl)acetic acid]",≤ 10,> 1000,> 1000,< 1000

# Results, then the compound that gave them:
EC50 [1] [nM],EC50 [2] [nM],EC50 [3] [nM],EC50 (S1P4) [nM],SMILES
10 to 100,> 1000,> 1000,< 1000,"O=C(O)CN1CC2(Cc3ccc(OCc4ccc(Cl)c(Cl)c4)cc3C2)C1 [Example 25, 2,2,2-trifluoroacetic acid compound with 2-(5′-((3,4-dichlorobenzyl)oxy)-1′,3′-dihydrospiro[azetidine-3,2′-inden]-1-yl)acetic acid (1:1)]"
≤ 10,> 1000,> 1000,< 1000,"CCc1cccc(Cl)c1COc1ccc2c(c1)CC1(C2)CN(CC2(C(=O)O)CC2)C1 [Example 28, 1-((5′-((2-chloro-6-ethylbenzyl)oxy)-1′,3′-dihydrospiro[azetidine-3,2′-inden]-1-yl)methyl)cyclopropanecarboxylic acid]"
1000 to 10000,> 1000,> 1000,> 1000,"O=C(O)C1(CN2CC3(Cc4ccc(OCc5ccccc5)cc4C3)C2)CC1 [Example 29, 1-((5′-(benzyloxy)-1′,3′-dihydrospiro[azetidine-3,2′-inden]-1-yl)methyl)cyclopropanecarboxylic acid]"
10 to 100,> 1000,> 1000,> 1000,"O=C(O)C1(CN2CC3(Cc4ccc(-c5ccc(OCC6CCCCC6)cc5)cc4C3)C2)CC1 [Example 51, 1-((5′-(4-(cyclohexylmethoxy)phenyl)-1′,3′-dihydrospiro[azetidine-3,2′-inden]-1-yl)methyl)cyclopropanecarboxylic acid]"
10 to 100,> 1000,> 1000,< 1000,"O=C(O)C1(CN2CC3(Cc4ccc(-c5ccc(OCc6cccc(Cl)c6)cc5)cc4C3)C2)CC1 [Example 52, 1-((5′-(4-((3-chlorobenzyl)oxy)phenyl)-1′,3′-dihydrospiro[azetidine-3,2′-inden]-1-yl)methyl)cyclopropanecarboxylic acid]"
≤ 10,> 1000,> 1000,< 1000,O=C(O)CN1CC2(Cc3ccc(OCCc4ccccc4C(F)(F)F)cc3C2)C1 [Example 62]
10 to 100,> 1000,> 1000,> 1000,"O=C(O)C1(CN2CC3(Cc4ccc(-c5ccc(OCc6ccc(Cl)cc6)cc5)cc4C3)C2)CC1 [Example 108, 1-((5′-(4-((4-chlorobenzyl)oxy)phenyl)-1′,3′-dihydrospiro[azetidine-3,2′-inden]-1-yl)methyl)cyclopropanecarboxylic acid]"
